Entries after “also recorded” stand apart in the source; their conditions may differ.
Assays:
Type in all cases: in vivo, mouse
[1] = test system: POMC homozygous mutant female mice; experiment: Daily intraperitoneal α-MSH analog in POMC homozygous mutant mice: body weight, food intake, coat (Example 2)
Experimental: (§1) To test initially for the effect of peripheral melanocortins on weight change, we selected the stable agonist [Ac-Cys^4, D-Phe^7, Cys^10] α-MSH (4-13) (described in Cody et al., 1985, J. Med. Chem. 28, 583-588; incorporated herein by reference in its entirety). Briefly, [Ac-Cys^4,D-Phe^7, Cys^10] α-MSH (4-13) amide, having the cysteines connected by a disulfide bridge, was obtained from Peninsula Laboratories, CA. Lyophilized powder was dissolved in water at 1 mg/ml, which was diluted in PBS to 10 μg/mL. During the experiments, mice were maintained on a normal 12 h/12 h light/dark cycle with food and water ad libitum. Mice were fed standard laboratory rodent diet (#5001).
(§2) In order to see whether the α-MSH analog has an effect on food intake, we compared weight change and food intake in these mice for one week (see bars in FIGS. 4A and 4B) under MSH analog treatment and after MSH analog treatment was stopped (FIGS. 4C and 4D). During one week under MSH analog treatment mutant mice lost 0.5 g, while wildtype littermates gained 0.3 g; the food intake during this time was equivalent in both groups (20.7 g in wildtypes, and 22.7 g in mutants).
An effect of MSH could also be seen on coat pigmentation. […] Yellow coat pigmentation gradually reappeared after MSH treatment was terminated (data not shown).

POMC null mutant mice = experiment: Weight change and food intake by diet and MSH analog treatment, POMC null mutant mice (Example 3, Table 1)
Experimental: (§3) P values were determined by ANOVA. If the major component of weight regulation through the melanocortinergic pathway was the regulation of feeding behavior, the observed changes in body weight in POMC null mutant mice should be paralleled by a similar pattern in food uptake. This, however, was not observed (FIGS. 5B and 5D and Table 1).

wildtype female mice = experiment: Daily intraperitoneal α-MSH analog in wildtype littermates: body weight, food intake (Example 2); details: for weight loss in wildtype littermates: 1 microgram i.p. daily, 16-day treatment
Experimental: as §1, §2

obese lep^ob/ob mice = experiment: Total weight change in obese lep ob/ob mice given leptin, α-MSH analog or both (Example 4, FIG. 6); details: 3 μg of each compound i.p. once daily; lep ob/ob mice aged 2 months; compared to untreated controls
Experimental: To assess a more general effect of peripheral melanocortin on adipocytes, another genetic form of obesity, in lep^ob/ob mice, was treated with the α-MSH analog. In this experiment, the mice received leptin or the α-MSH analog alone, and in combination. Briefly, obese lep^ob/ob mice at age 2 months (2 per group) received daily either: (1) 3 μg of α-MSH analog (described in Examples 2 and 3 above); (2) 3 μg of recombinant mouse leptin; (3) 3 μg of α-MSH analog and 3 μg of recombinant mouse leptin in combination; or (4) saline. The compounds were delivered intraperitoneally once daily, 1-2 hours before the onset of darkness.

wildtype mice = experiment: Weight change and food intake by diet and MSH analog treatment, wildtype mice (Example 3, Table 1); details: MSH analog i.p. 1 or 2 μg once daily
Experimental: as §3

ob/ob mutants [2] = experiment: Core temperature of ob/ob mutants exposed to 4° C. (Example 5, FIG. 10); details: 7 micrograms; 5 hours without food, then 4° C. for 65 minutes; versus vehicle treated ob/ob
Experimental: In 1977, the decreased ability of ob/ob mutants to maintain body temperature at 4° C. was noted. This preceded the onset of obesity in these mice. In view of the evidence that MSH regulates adipocyte metabolism, the present inventors hypothesized that the low levels of circulating MSH in leptin deficient (ob/ob) mutants was responsible for the impaired thermal regulation. To test this, ob/ob mutants were injected with 7 micrograms of MSH analog or vehicle only as described above. The mice were left without food for 5 hours and then exposed to 4° C. for 65 minutes. Their core temperatures were measured periodically by transfer to a coldroom (4° C.) where core temperatures were measured using a digital thermometer fitted with a rectal probe (Atkins Technical Inc., Gainesville, Fla.). […] As the mice had no opportunity to eat between injection of the MSH analog and the cold challenge, food intake cannot be responsible for the altered thermal regulation.

ob/ob mutants [3] = experiment: Weight gain and food intake in ob/ob mutants given leptin, MSH analog or both (Example 5, FIGS. 8 and 9)
Experimental: Leptin deficient (ob/ob) mutants show both hyperphagia and “increased metabolic efficiency” as witnessed by their ability to gain weight even when pair-fed with normal congenic controls. To determine the effects of leptin and MSH on food intake and weight gain, four sets of ob/ob mutants were treated with leptin, an MSH analog, both together, or vehicle alone. The MSH analog [Ac-Cys^4, D-Phe^7, Cys^10] α-MSH (4-13) was purchased from Peninsula Laboratories (Belmont, Calif.). Mice were treated with daily injections of 7 micrograms of each, both or neither.

[4] = test system: ob/ob mutant mice (C57BL/6J-Lep^ob); experiment: Circulating MSH levels by RIA in ob/ob mutants treated with leptin (Example 5, FIG. 7); details: leptin 7 microgram/day i.p., two hours after the tenth daily injection
Experimental: To test the inductive ability of leptin on circulating MSH levels, ob/ob mutants (ob/ob mutant mice (C57BL/6J-Lep^ob) and congenic controls were purchased from the Jackson Laboratory, Bar Harbor, Me.) were treated with leptin (7 microgram/day) or with vehicle alone (Murine recombinant leptin was kindly provided by Dr. A. F. Parlow through the National Hormone and Pituitary Program (NHPP); hormones were diluted to 70 micrograms per milliliter in PBS; mice were injected intraperitoneally with 0.1 mL). Two hours after the tenth daily injection, blood samples were drawn from the retro-orbital sinus and analyzed for MSH levels by RIA following the manufacturer's instructions (Peninsula Laboratories, Belmont, Calif.).

[5] = both genotypes on standard diet & MSH analog treatment
[6] = mutant mice, MSH analog i.p. 1 or 2 μg once daily
[7] = daily injections of 7 micrograms, ob/ob mutants

[Ac-Cys^4, D-Phe^7, Cys^10] α-MSH (4-13) [MSH analog]
weight loss by 2 weeks ([1]; 1 microgram (~1 nmol) i.p. daily, mutant female mice, listed as MSH-agonist): 46 % of excess weight
weight loss by 2 weeks ([1]; 1 microgram (~1 nmol) i.p. daily, mutant female mice, listed as stable α-MSH agonist): over 40 % of excess weight
weight loss within one week ([1]; 1 microgram (~1 nmol) i.p. daily, mutant female mice, within one week): 38 % of excess weight
time until mutant mice started to gain weight after MSH injections were stopped ([1]; after the 16-day treatment ended): about 10 days
coat pigmentation ([1]; mice treated for two weeks): lost their yellowish tinge
weight lost during one week under MSH analog treatment ([1]; mutant mice, second week of treatment): 0.5 g
weight gained in one week after MSH analog treatment had been stopped for two weeks ([1]; mutant mice, third week after termination): 1.7 g
food intake during one week under MSH analog treatment ([1]; mutants, second week of treatment): 22.7 g
food intake in one week after MSH analog treatment had been stopped for two weeks ([1]; mutants, third week after termination): 35.7 g
food intake, wildtype v. mutant (POMC null mutant mice; [5]): ↑
weight change, wildtype v. mutant (POMC null mutant mice; [5]): ↓
food intake, standard diet v. standard diet & MSH analog treatment (POMC null mutant mice; [6]): decreases food intake and ↓
weight change, standard diet v. standard diet & MSH analog treatment (POMC null mutant mice; [6]): lose excess weight and ↓
weight loss in wildtype littermates (wildtype female mice; listed as MSH-agonist): no significant weight loss
weight loss in wildtype littermates (wildtype female mice; listed as stable α-MSH agonist): did not lose significant weight
weight gained during one week under MSH analog treatment (wildtype female mice; wildtype littermates, second week of treatment): 0.3 g
weight gain in one week after MSH analog treatment had been stopped for two weeks (wildtype female mice; wildtype littermates, third week after termination): 0.3 g
food intake during one week under MSH analog treatment (wildtype female mice; wildtypes, second week of treatment): 20.7 g
food intake in one week after MSH analog treatment had been stopped for two weeks (wildtype female mice; wildtypes, third week after termination): 24.2 g
total weight change over a period of 10 days (obese lep^ob/ob mice): slowed weight gain by almost half
food intake, standard diet v. standard diet & MSH analog treatment (wildtype mice): decreases food intake and ↓
weight change, standard diet v. standard diet & MSH analog treatment (wildtype mice): completely capable of maintaining their body weight constant and ←→
core temperature during exposure to 4° C. (ob/ob mutants [2]): maintained their core temperature much better; also recorded: increases thermal homeostasis
supplementing the weight reducing effect of leptin (ob/ob mutants [3]; MSH analog together with a leptin dose sufficient to induce normal MSH levels, ob/ob mice): inability of peripheral MSH analog to supplement the weight reducing effect
effect on weight gain compared with effect on food intake (ob/ob mutants [3]; [7]): greater on weight gain than on food intake
weight gain (ob/ob mutants [3]; [7]): effectively decreased weight gain; also recorded: decreases weight gain

B1: leptin: recombinant mouse leptin, product of the ob gene; Example 5 material provided through the NHPP (protein, UniProt P41160 22-167, looked up)
Leptin: VPIQKVQDDTKTLIKTIVTRINDISHTQSVSAKQRVTGLDFIPGLHPILSLSKMDQTLAVYQQVLTSLPSQNVLQIANDLENLRDLLHLLAFSKSCSLPQTSGLQKPESLDGVLEASLYSTEVVALSRLQGSLQDILQQLDVSPEC
total weight change over a period of 10 days (obese lep^ob/ob mice): little effect on preventing further weight gain
weight gain (ob/ob mutants [3]; [7]): effectively decreased weight gain
circulating MSH levels [4]: approached those found in normal control mice; also recorded: induces almost normal levels of circulating MSH
